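Values below derive from 48-hour exposures of cells grown in 96-well plates, with endpoints linearly interpolated between the two concentrations bracketing the appropriate inhibition level. GI50 = concentration required for 50% inhibition of growth. Definition used: TGI = concentration required for complete inhibition of growth.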
Tests used:
Assay in all cases: growth of human tumour cells (NCI), 48 h
HCC-2998 colon = system: HCC-2998 colon
HCT-116 colon = system: HCT-116 colon
LOX IMVI melanoma = system: LOX IMVI melanoma
OVCAR-8 ovarian = system: OVCAR-8 ovarian
SF-268 CNS = system: SF-268 CNS
SR leukemia = system: SR leukemia
SW-620 colon = system: SW-620 colon
UACC-257 melanoma = system: UACC-257 melanoma
UO-31 renal = system: UO-31 renal
HL-60(TB) leukemia = system: HL-60(TB) leukemia

| SMILES | TGI (HCC-2998 colon) | TGI (HCT-116 colon) | TGI (LOX IMVI melanoma) | TGI (OVCAR-8 ovarian) | TGI (SF-268 CNS) | TGI (SR leukemia) | TGI (SW-620 colon) | TGI (UACC-257 melanoma) | TGI (UO-31 renal) | TGI (HL-60(TB) leukemia) | GI50 (HCC-2998 colon) | GI50 (HCT-116 colon) | GI50 (HL-60(TB) leukemia) | GI50 (LOX IMVI melanoma) | GI50 (OVCAR-8 ovarian) | GI50 (SF-268 CNS) | GI50 (SW-620 colon) | GI50 (UACC-257 melanoma) | GI50 (UO-31 renal) | GI50 (SR leukemia) |
| --- | --- | --- | --- | --- | --- | --- | --- | --- | --- | --- | --- | --- | --- | --- | --- | --- | --- | --- | --- | --- |
| O=C(CCc1cc(-c2ccc(F)cc2)n[nH]1)N(Cc1ccccc1)Cc1ccccc1 | > 100 µM | > 100 µM | > 100 µM | > 100 µM | > 100 µM | 81.1 µM | > 100 µM | > 100 µM | > 100 µM | – | – | – | – | – | – | – | – | – | – | – |
| COc1cc(CCc2ccncc2)cc(OC)c1OC | – | > 100 µM | > 100 µM | > 100 µM | > 100 µM | – | > 100 µM | > 100 µM | > 100 µM | > 100 µM | – | – | – | – | – | – | – | – | – | – |
| O=C1C(=Cc2ccc(F)cc2)C(=O)c2ccccc21 | > 100 µM | > 100 µM | – | > 100 µM | > 100 µM | – | > 100 µM | > 100 µM | > 100 µM | > 100 µM | – | – | – | – | – | – | – | – | – | – |
| CCN(CC)CCNc1ccc([N+](=O)[O-])c2nc3ccc(OC)cc3c(N)c12 | – | 0.284 µM | 0.344 µM | 3.45 µM | 3.63 µM | 0.972 µM | 0.772 µM | 3.97 µM | 3.13 µM | 0.246 µM | – | – | – | – | – | – | – | – | – | – |
| Cn1cc(-c2csc(-c3cn(C(=O)OC(C)(C)C)c4ccccc34)n2)c2cccnc21 | 25.3 µM | 17.8 µM | 18.6 µM | 33.9 µM | 35.3 µM | – | 21.6 µM | 23.6 µM | 21.3 µM | 21.9 µM | 10.2 µM | 4.7 µM | 2.61 µM | 3.53 µM | 6.03 µM | 8.01 µM | 4.53 µM | 8.97 µM | 3.46 µM | – |
| CC1=C(SCCC(=O)OC(C[Se]C2=C(C)C(=O)c3ccccc3C2=O)C(=O)NC(C)(C)C)C(=O)c2ccccc2C1=O (stereo unspecified) | 2.96 µM | 1.44 µM | 2.9 µM | 2.74 µM | 2.88 µM | – | 2.87 µM | 3.2 µM | 2.15 µM | 2.39 µM | 1.59 µM | 0.384 µM | 0.68 µM | 1.4 µM | 1.28 µM | 1.55 µM | 1.36 µM | 1.76 µM | 0.68 µM | – |
| COc1ccc2c(c1)[nH]c1c3ccc(OC)cc3oc(=O)c21 | > 100 µM | > 100 µM | > 100 µM | > 100 µM | > 100 µM | – | > 100 µM | > 100 µM | > 100 µM | > 100 µM | – | – | – | – | – | – | – | – | – | – |
| COc1ccc(C2C3=C(COC3=O)N(CCO)c3cc4c(cc32)CCC4)cc1 (stereo unspecified) | 25.8 µM | > 50 µM | > 50 µM | > 50 µM | > 50 µM | – | > 50 µM | > 50 µM | > 50 µM | 3.98 µM | 5.76 µM | 2.12 µM | 1.18 µM | 3.1 µM | 14.2 µM | 7.05 µM | 2.17 µM | 4.34 µM | 5.86 µM | – |
| CC1/C(=N/O)CC(c2ccccc2)N(N=O)C1c1ccccc1 (stereo unspecified) | > 100 µM | > 100 µM | > 100 µM | > 100 µM | > 100 µM | – | > 100 µM | > 100 µM | > 100 µM | > 100 µM | – | – | – | – | – | – | – | – | – | – |
| C1CC[N-]CC1.CC(=N\O)/C(C)=N/O.CC(=N\O)/C(C)=N/O.C[CH-]C(C)O.[Co+2] | – | 36.7 µM | 33.7 µM | 59.6 µM | 95 µM | 45 µM | 66.8 µM | 40.2 µM | > 100 µM | 45.7 µM | – | 18.2 µM | 14.5 µM | 17.8 µM | 21.2 µM | 29.4 µM | 23.5 µM | 18.2 µM | 42.9 µM | 18.2 µM |
| Oc1ccc(O)c(-n2cccn2)c1-n1cccn1 | > 100 µM | – | > 100 µM | > 100 µM | > 100 µM | – | > 100 µM | – | > 100 µM | > 10 µM | – | – | – | – | – | – | – | – | – | – |
| CN(C)Cc1cc(C(C)(C)C)cc(CN(C)C)c1O | 52.2 µM | > 100 µM | > 100 µM | > 100 µM | > 100 µM | > 100 µM | > 100 µM | > 100 µM | 51.6 µM | – | – | – | – | – | – | – | – | – | – | – |
| CCSc1nc(N)c2cnn(CC)c2n1 | – | 32.8 µM | 8 µM | 19.4 µM | 66.7 µM | 48.9 µM | 18.2 µM | 36.5 µM | > 100 µM | 32.5 µM | – | 5.94 µM | 2.33 µM | 2.23 µM | 3.21 µM | 23.3 µM | 3.8 µM | 10.2 µM | 7.24 µM | 2.27 µM |
| C=C1C(=O)OC2(C)CCC1CC1OC1(C)CCC=C(C)CCC2O (stereo unspecified) | > 100 µM | > 100 µM | > 100 µM | > 100 µM | > 100 µM | – | > 100 µM | > 100 µM | > 100 µM | > 100 µM | – | – | – | – | – | – | – | – | – | – |
| N/C(CC(=O)NOC(=O)c1ccccc1)=N/OC(=O)c1ccccc1 | – | > 100 µM | 38.5 µM | > 100 µM | 75.1 µM | – | > 100 µM | > 100 µM | 53.9 µM | > 100 µM | – | – | – | – | – | – | – | – | – | – |
| c1ccc(-c2cc3n4c(-c5ccccc5)nn(-c5ccccc5)c4cnc-3n2)cc1 | – | > 50 µM | > 50 µM | > 50 µM | > 50 µM | > 50 µM | > 50 µM | > 50 µM | > 50 µM | > 50 µM | – | 3.61 µM | > 50 µM | > 50 µM | > 50 µM | 10.1 µM | > 50 µM | > 50 µM | > 50 µM | > 50 µM |
| C=C(CN1CCN(c2ccc(F)c(Cl)c2)CC1)c1ccc(C(=O)Nc2ccccc2N)cc1 | 24.9 µM | 10.3 µM | 12.5 µM | > 100 µM | > 100 µM | – | > 100 µM | 47.3 µM | 12.1 µM | 4.31 µM | 9.47 µM | 3.08 µM | 1.64 µM | 3.47 µM | 5.42 µM | 4.35 µM | 5.37 µM | 13.9 µM | 2.28 µM | – |
